Assay type in all cases: cell-based
For assay [1], the system named is NCI-H2342 lung carcinoma cells. Put plainly: Cell growth inhibition (CellTiter-Glo), NCI-H2342. Conditions: Homo sapiens, NCI-H2342, 72 h, 3 days. From the text:
Esophageal carcinoma cell line OE33 was purchased from ECACC European Collection of Cell Cultures (UK). Breast cancer cell line JIMT-1 and gastric carcinoma cell line MKN-45 were purchased from Deutsche Sammlung von Mikroorganismen and Zellkulturen GmbH (Germany); KPL-4, a human breast cancer cell line was kindly provided by Prof. J Kurebayashi (Kawasaki Medical School, Kurashiki, Japan). […] The LICR-LON-HN5 head and neck carcinoma cell line (HN5) was a gift from the Institute of Cancer Research, Surrey, U.K. HN5C12 was developed by single-cell cloning of HN5 followed by exposure to increasing concentrations of lapatinib. […] Cell growth inhibition was determined via CellTiter-Glo cell viability assays. […] BT474-J4 and HN5C12 were washed with PBS and plated in their culture media without lapatinib. […] ATP levels were determined by adding Cell Titer Glo0 (Promega), incubating for 20 minutes then the luminescent signal was read on the SpectraMax M5 plate with a 0.5 second integration time. Cell growth was calculated relative to vehicle (DMSO) treated control wells. […] y=([…]) where A is the minimum response (ymin), B is the maximum response (ymax), c is the inflection point of the curve (EC50), d is the Hill coefficient, and x is the log10 compound concentration (moles/L). CI values were calculated with the interpolated IC50 values and the mutually non-exclusive equation derived by Chou and […](a)+Db/IC50(b)+(Da×Db)/(IC50(a)×IC50(b)) where IC50(a) is the IC50 of the inhibitor A; IC50(b) is the IC50 for the inhibitor B; […] Excess Over Highest Single Agent (EOHSA) is defined as a statistically significant improvement in the combination compared to the component monotherapies. […] See Borisy et al. (2003) or Hung et al. (1993) for examples and discussion. Analysis was conducted using two-factor analysis of variance with interaction (model terms were dose of drug A, dose of drug B, and interaction between doses of drug A and B), followed by linear contrasts between each combination group and corresponding monotherapies. Analysis was conducted using SAS (version 9, provided by SAS Institute, Cary, N.C.). EOHSA at each dose was calculated as the minimum difference in average % inhibition between the combination and each monotherapy, from the appropriate ANOVA contrast. Since there are many comparisons for the % inhibition endpoint, p-value adjustment for multiple comparisons was performed. Hommel's procedure was implemented in order to improve the power while retaining […] Error Rate (FWE) control by using a sequentially rejective method. The p-values for both synergy and antagonism were calculated using this adjustment.

Assay [2] concerns HCC1954 breast carcinoma cells. Description: Cell growth inhibition (CellTiter-Glo), HCC1954. Particulars: Homo sapiens, HCC1954, 72 h, 3 days. From the text: (§1) Esophageal carcinoma cell line OE33 was purchased from ECACC European Collection of Cell Cultures (UK). Breast cancer cell line JIMT-1 and gastric carcinoma cell line MKN-45 were purchased from Deutsche Sammlung von Mikroorganismen and Zellkulturen GmbH (Germany); KPL-4, a human breast cancer cell line was kindly provided by Prof. J Kurebayashi (Kawasaki Medical School, Kurashiki, Japan). […] The LICR-LON-HN5 head and neck carcinoma cell line (HN5) was a gift from the Institute of Cancer Research, Surrey, U.K. HN5C12 was developed by single-cell cloning of HN5 followed by exposure to increasing concentrations of lapatinib. […] Cell growth inhibition was determined via CellTiter-Glo cell viability assays. […] ATP levels were determined by adding Cell Titer Glo0 (Promega), incubating for 20 minutes then the luminescent signal was read on the SpectraMax M5 plate with a 0.5 second integration time. Cell growth was calculated relative to vehicle (DMSO) treated control wells. […] CI values were calculated with the interpolated IC50 values and the mutually non-exclusive equation derived by Chou and […](a)+Db/IC50(b)+(Da×Db)/(IC50(a)×IC50(b)) where IC50(a) is the IC50 of the inhibitor A; IC50(b) is the IC50 for the inhibitor B; […] […] EOHSA at each dose was calculated as the minimum difference in average % inhibition between the combination and each monotherapy, from the appropriate ANOVA contrast. […]
In general terms: Cellular ATP, detected with luciferase, serves as a proxy for viable cell number.

The test system of assay [3] is N87 gastric carcinoma cells. Description: Cell growth inhibition (CellTiter-Glo), N87. Conditions: Homo sapiens, 72 h, 3 days. From the text:
(§2) Esophageal carcinoma cell line OE33 was purchased from ECACC European Collection of Cell Cultures (UK). Breast cancer cell line JIMT-1 and gastric carcinoma cell line MKN-45 were purchased from Deutsche Sammlung von Mikroorganismen and Zellkulturen GmbH (Germany); KPL-4, a human breast cancer cell line was kindly provided by Prof. J Kurebayashi (Kawasaki Medical School, Kurashiki, Japan). […] The LICR-LON-HN5 head and neck carcinoma cell line (HN5) was a gift from the Institute of Cancer Research, Surrey, U.K. HN5C12 was developed by single-cell cloning of HN5 followed by exposure to increasing concentrations of lapatinib. […] Cell growth inhibition was determined via CellTiter-Glo cell viability assays. […] BT474-J4 and HN5C12 were washed with PBS and plated in their culture media without lapatinib. […] ATP levels were determined by adding Cell Titer Glo0 (Promega), incubating for 20 minutes then the luminescent signal was read on the SpectraMax M5 plate with a 0.5 second integration time. Cell growth was calculated relative to vehicle (DMSO) treated control wells. […] EOHSA at each dose was calculated as the minimum difference in average % inhibition between the combination and each monotherapy, from the appropriate ANOVA contrast. […] The p-values for both synergy and antagonism were calculated using this adjustment.

The subject of assay [4] is BT474-J4 lapatinib resistant breast carcinoma cells. Put plainly: Cell growth inhibition (CellTiter-Glo), BT474-J4. Particulars: Homo sapiens; for IC50: 72 h, 3 days. From the text:
Esophageal carcinoma cell line OE33 was purchased from ECACC European Collection of Cell Cultures (UK). Breast cancer cell line JIMT-1 and gastric carcinoma cell line MKN-45 were purchased from Deutsche Sammlung von Mikroorganismen and Zellkulturen GmbH (Germany); KPL-4, a human breast cancer cell line was kindly provided by Prof. J Kurebayashi (Kawasaki Medical School, Kurashiki, Japan). […] The LICR-LON-HN5 head and neck carcinoma cell line (HN5) was a gift from the Institute of Cancer Research, Surrey, U.K. HN5C12 was developed by single-cell cloning of HN5 followed by exposure to increasing concentrations of lapatinib. […] Cell growth inhibition was determined via CellTiter-Glo cell viability assays. […] BT474-J4 and HN5C12 were washed with PBS and plated in their culture media without lapatinib. […] ATP levels were determined by adding Cell Titer Glo0 (Promega), incubating for 20 minutes then the luminescent signal was read on the SpectraMax M5 plate with a 0.5 second integration time. Cell growth was calculated relative to vehicle (DMSO) treated control wells. […] Excess Over Highest Single Agent (EOHSA) is defined as a statistically significant improvement in the combination compared to the component monotherapies. […] Analysis was conducted using two-factor analysis of variance with interaction (model terms were dose of drug A, dose of drug B, and interaction between doses of drug A and B), followed by linear contrasts between each combination group and corresponding monotherapies. Analysis was conducted using SAS (version 9, provided by SAS Institute, Cary, N.C.). EOHSA at each dose was calculated as the minimum difference in average % inhibition between the combination and each monotherapy, from the appropriate ANOVA contrast. Since there are many comparisons for the % inhibition endpoint, p-value adjustment for multiple comparisons was performed. Hommel's procedure was implemented in order to improve the power while retaining […] […] The p-values for both synergy and antagonism were calculated using this adjustment.

Assay [5] concerns BT474 breast carcinoma cells. Description: Cell growth inhibition (CellTiter-Glo), BT474. Conditions: Homo sapiens, BT-474, 72 h, 3 days.
Excerpt: as §2

The test system of assay [6] is HT29 colon carcinoma cells. Put plainly: Cell growth inhibition (CellTiter-Glo), HT29. Particulars: Homo sapiens, HT-29, 72 h, 3 days.
Excerpt: as §1

Usually IC50 stands for the concentration at which inhibition is half-maximal. As usually defined, the inhibition is the share of the control response that was lost under treatment. As for `CS(=O)(=O)CCNCc1ccc(-c2ccc3ncnc(Nc4ccc(OCc5cccc(F)c5)c(Cl)c4)c3c2)o1` [Lapatinib, N-(3-chloro-4-{[(3-fluorophenyl)methyl]oxy}phenyl)-6-[5-({[2-(methylsulfonyl)ethyl]amino}methyl)-2-furanyl]-4-quinazolinamine], the IC50 in assay [1] (lung_H2342, +HGF (2 ng/mL)) stood at 6.64 µM; in assay [1] (lung_H2342, −HGF) it was 6.81 µM; in assay [2] (breast_HCC1954, +HGF (2 ng/mL)) it was 5.27 µM; in assay [2] (breast_HCC1954, −HGF) it was 0.8 µM; in assay [3] (gastric_N87, +HGF (2 ng/mL)) it was 4.8 µM; in assay [3] (gastric_N87, −HGF), 0.05 µM. Moreover, the IC50 in assay [4] (breast_BT474-J4, +HGF (2 ng/mL)) is greater than 10 µM; in assay [4] (breast_BT474-J4, −HGF) it was greater than 10 µM; in assay [5] (breast_BT474, +HGF (2 ng/mL)), 0.12 µM; in assay [5] (breast_BT474, −HGF), 0.11 µM. Besides, the inhibition at 1 µM in assay [4] (BT474-J4, lapatinib by itself at 1.0 μM (FIG. 5A)) was less than 50%.

In the case of `C#Cc1cccc(Nc2ncnc3cc(OCCOC)c(OCCOC)cc23)c1` [Erlotinib, N-(3-ethynylphenyl)-6,7-bis{[2-(methyloxy)ethyl]oxy}-4-quinazolinamine], the IC50 in assay [1] (lung_H2342, +HGF (2 ng/mL)) is greater than 10 µM; in assay [1] (lung_H2342, −HGF), greater than 10 µM; in assay [6] (colon_HT-29, +HGF (2 ng/mL)), greater than 10 µM; in assay [6] (colon_HT-29, −HGF), greater than 10 µM.

These data come from patent US20130150363A1, “Method of Treating Cancer Using a cMET and AXL Inhibitor and an ErbB Inhibitor” (GlaxoSmithKline, priority 2008, published 2013).
